Assay results: patent US20130029936A1, “Inclusion Compounds of Fumagillol Derivative or its Salt, and Pharmaceutical Compositions Comprising the Same” (priority 2002, published 2013)
≈ marks a conversion by molar mass, not a printed value.

Experiments:
[1] = Solubility in hydroxypropyl-β-cyclodextrin solution (HPLC of filtrate); type: physicochemical; conditions: 4° C., 72 hr
Method: (§1) O-(4-dimethylaminoethoxycinnamoyl)fumagillol (30 mg) was added to 1.5, 3.5, 7.0, 14.0, 28.0 w/v % hydroxypropyl-β-cyclodextrin solution, respectively, and stirred at 4° C. After 72 hr, the mixture was filtered with 0.2 μm membrabe filter and O-(4-dimethylaminoethoxycinnamoyl)fumagillol in the filtrate was determined by high pressure liquid chromatography (HPLC). The solubility of O-(4-dimethylamino ethoxycinnamoyl)fumagillol as a function of the hydroxypropyl-β-cyclodextrin concentration was represented in Table 1.
(§2) O-(3,4,5-trimethoxycinnamoyl)fumagillol (20 mg) was added to 1.5, 3.5, 7.0, 14.0, 28.0 w/v % hydroxypropyl-β-cyclodextrin solution, respectively, and stirred at 4° C. After 72 hr, the mixture was filtered with 0.2 μm membrabe filter and O-(3,4,5-trimethoxycinnamoyl)fumagillol in the filtrate was determined by high pressure liquid chromatography (HPLC). The solubility of O-(3,4,5-trimethoxycinnamoyl)fumagillol as a function of the hydroxypropyl-β-cyclodextrin concentration was shown in Table 3.

[2] = Solubility in sulfobutylether-7-β-cyclodextrin solution (HPLC of filtrate); type: physicochemical; conditions: 4° C., 72 hr
Method: as §1, with “% sulfobutylether-7-β-cyclodextrin” for “% hydroxypropyl-β-cyclodextrin”, “of O-(4-dimethylaminoethoxycinnamoyl)fumagillol” for “of O-(4-dimethylamino ethoxycinnamoyl)fumagillol”, “the sulfobutylether-7-β-cyclodextrin” for “the hydroxypropyl-β-cyclodextrin”, “Table 2.” for “Table 1.”
as §2, with “% sulfobutylether-7-β-cyclodextrin” for “% hydroxypropyl-β-cyclodextrin”, “the sulfobutyletyher-7-β-cyclodextrin” for “the hydroxypropyl-β-cyclodextrin”, “Table 4.” for “Table 3.”

[3] = Stability of lyophilized powders under storage at 25° C. (residual amount by HPLC); type: physicochemical
Method: The stability of the lyophilized powders obtained in Example 6 was compared with that of O-(4-dimethylaminoethoxycinnamoyl)fumagillol alone under storage at 25° C. The residual amount of O-(4-dimethylaminoethoxycinnamoyl)fumagillol was determined by HPLC.
The stability of the lyophilized powders obtained in Example 7 was compared with that of O-(3,4,5-trimethoxycinnamoyl)fumagillol alone at 25° C. The residual amount of O-(3,4,5-trimethoxycinnamoyl)fumagillol was determined by HPLC.

[4] = Solubility in hydroxypropyl-β-cyclodextrin solution (HPLC of filtrate); type: physicochemical
[5] = Solubility in phosphate buffer (pH 6.7) containing hydroxypropyl-β-cyclodextrin; type: physicochemical; conditions: 4° C., 72 hr
Method: O-(4-dimethylaminoethoxycinnamoyl)fumagillol (50 mg) was added to phosphate buffer (pH 6.7) containing 1.5, 3.5, 7.0 and 14.0 w/v % hydroxypropyl-β-cyclodextrin, respectively, and stirred at 4° C. After 72 hr, the mixture was filtered with 0.2 μm membrabe filter and O-(4-dimethylaminoethoxycinnamoyl)fumagillol in the filtrate was determined by high pressure liquid chromatography (HPLC). The solubility of O-(4-dimethylaminoethoxycinnamoyl)fumagillol as a function of the hydroxypropyl-β-cyclodextrin concentration was shown in Table 5.

[6] = Solubility evaluation with cosolvents and surfactants; type: physicochemical
Excerpt: However, these formulations have a number of disadvantages, which are the inability to guarantee the long-term stability due to facile hydrolysis in solution state, the inability to be buffered due to increased sensitivity to ions resulting in precipitation and further, the toxicity of the surfactants.

[7] = Stability (hydrolysis) in acidic, neutral and basic solutions at 50° C. with hydroxypropyl-β-cyclodextrin; type: physicochemical
Method: The stability of O-(4-dimethylaminoethoxycinnamoyl)fumagillol was investigated in the presence of various concentrations of hydroxypropyl-β-cyclodextrin in acidic, neutral and basic solutions at 50° C. The residual amount of O-(4-dimethylaminoethoxycinnamoyl)fumagillol in each solution was determined by HPLC.

Lewis lung carcinoma = assay: Tumor growth inhibition, subcutaneously implanted Lewis lung carcinoma; type: in vivo; conditions: BDF1 mice
Method: Pre-prepared tumor mass (Lewis lung carcinoma) of 8 mm^3 was subcutaneously implanted into the right axillary region of BDF1 mice (4 weeks). When the tumor size was 100-200 mm^3, mice were divided randomly into treatment group and control group. The treatment group was administered subcutaneously with O-(4-ethylaminoethoxycinnamoyl)fumagillol or the complex of O-(4-ethylaminoethoxycinnamoyl)fumagillol with hydroxypropyl-β-cyclodextrin at a dose of 30 mg/kg or 120 mg/kg as O-(4-ethylaminoethoxycinnamoyl)fumagillol every other day for 5 injections, while the control group was given injections of 0.2 ml of phosphate buffered saline. The tumors were weighed on the final day, and tumor volume was calculated using the following equation:
Tumor volume (mm^3)=a×b^2×0.5
(a: the longest diameter, b: the shortest diatheter) Inhibition ratio (IR %) of the treatment group relative to the untreated control group was calculated using the following equation:
=(1−Tumor volume of Treatment group/Tumor volume of Control group)×100
=(1−Tumor weight of Treatment group/Tumor weight of Control group)×100

[8] = cited from earlier work
[9] = 1.5 w/v % hydroxypropyl-β-cyclodextrin
[10] = 3.5 w/v % hydroxypropyl-β-cyclodextrin
[11] = 14.0 w/v % hydroxypropyl-β-cyclodextrin
[12] = 28.0 w/v % hydroxypropyl-β-cyclodextrin
[13] = 0 w/v % sulfobutylether-7-β-cyclodextrin
[14] = 1.5 w/v % sulfobutylether-7-β-cyclodextrin
[15] = 3.5 w/v % sulfobutylether-7-β-cyclodextrin
[16] = 14.0 w/v % sulfobutylether-7-β-cyclodextrin
[17] = 28.0 w/v % sulfobutylether-7-β-cyclodextrin
[18] = 0 w/v % hydroxypropyl-β-cyclodextrin, 4° C., 72 hr
[19] = Acidic (pH 3.2), 2 w/v % hydroxypropyl-β-cyclodextrin
[20] = Acidic (pH 3.2), 5 w/v % hydroxypropyl-β-cyclodextrin
[21] = Acidic (pH 3.2), 10 w/v % hydroxypropyl-β-cyclodextrin
[22] = Acidic (pH 3.2), 20 w/v % hydroxypropyl-β-cyclodextrin
[23] = Basic (pH 11.5), 2 w/v % hydroxypropyl-β-cyclodextrin
[24] = Basic (pH 11.5), 5 w/v % hydroxypropyl-β-cyclodextrin
[25] = Basic (pH 11.5), 10 w/v % hydroxypropyl-β-cyclodextrin
[26] = Basic (pH 11.5), 20 w/v % hydroxypropyl-β-cyclodextrin
[27] = Neutral (pH 7.2), 2 w/v % hydroxypropyl-β-cyclodextrin
[28] = Neutral (pH 7.2), 5 w/v % hydroxypropyl-β-cyclodextrin
[29] = Neutral (pH 7.2), 10 w/v % hydroxypropyl-β-cyclodextrin
[30] = Neutral (pH 7.2), 20 w/v % hydroxypropyl-β-cyclodextrin
[31] = Total Dose 150 mg/kg (30 mg/kg subcutaneously every other day, 5 injections)
[32] = Total Dose 600 mg/kg (120 mg/kg subcutaneously every other day, 5 injections)

For `COc1cc(C=CC(=O)OC2CCC3(CO3)C(C3(C)OC3CC=C(C)C)C2OC)cc(OC)c1OC` (centres unmarked) [O-(3,4,5-trimethoxycinnamoyl)fumagillol], the Solubility [1, 9] was 430 µg/mL (≈ 0.856 mM), the Solubility [1, 10] was 1520 µg/mL (≈ 3.02 mM) and the Solubility ([1]; 7.0 w/v % hydroxypropyl-β-cyclodextrin) was 3540 µg/mL (≈ 7.04 mM). The Solubility [1, 11] was 6720 µg/mL (≈ 13.4 mM), the Solubility [1, 12] was 12020 µg/mL (≈ 23.9 mM) and the Solubility [2, 13] was 2 µg/mL (≈ 0.00398 mM). For the same compound, the Solubility [2, 14] was 580 µg/mL (≈ 1.15 mM), the Solubility [2, 15] was 1380 µg/mL (≈ 2.75 mM) and the Solubility ([2]; 7.0 w/v % sulfobutylether-7-β-cyclodextrin) was 2750 µg/mL (≈ 5.47 mM). The Solubility [2, 16] was 5690 µg/mL (≈ 11.3 mM), the Solubility [2, 17] was 11670 µg/mL (≈ 23.2 mM) and the “Residual amount of O-(3,4,5-trimethoxycinnamoyl)fumagillol (%) after 1 month” value ([3]; 25° C., after 1 month) was 65.3%. It also gave a Solubility [4, 18] of 2 µg/mL (≈ 0.00398 mM).
`CO[C@@H]1[C@H](OC(=O)C=Cc2ccc(OCCN(C)C)cc2)CC[C@]2(CO2)[C@H]1[C@@]1(C)O[C@@H]1CC=C(C)C` [O-(4-dimethylaminoethoxycinnamoyl)fumagillol] gave a Solubility [1, 9] of 1030 µg/mL (≈ 2.06 mM), a Solubility [1, 10] of 2930 µg/mL (≈ 5.86 mM) and a Solubility [1, 11] of 11540 µg/mL (≈ 23.1 mM). It also gave a Solubility [1, 12] of 22640 µg/mL (≈ 45.3 mM), a Solubility [2, 13] of 50 µg/mL (≈ 0.1 mM) and a Solubility [2, 14] of 870 µg/mL (≈ 1.74 mM). For the same compound, the Solubility [2, 15] was 2240 µg/mL (≈ 4.48 mM), the Solubility [2, 16] was 10430 µg/mL (≈ 20.9 mM) and the Solubility [2, 17] was 21300 µg/mL (≈ 42.6 mM). It also gave a Solubility ([5]; phosphate buffer pH 6.7, 0 w/v % hydroxypropyl-β-cyclodextrin) of 2380 µg/mL (≈ 4.76 mM), a Solubility ([5]; phosphate buffer pH 6.7, 1.5 w/v % hydroxypropyl-β-cyclodextrin) of 4240 µg/mL (≈ 8.49 mM) and a Solubility ([5]; phosphate buffer pH 6.7, 3.5 w/v % hydroxypropyl-β-cyclodextrin) of 9860 µg/mL (≈ 19.7 mM). For the same compound, the Solubility ([5]; phosphate buffer pH 6.7, 7.0 w/v % hydroxypropyl-β-cyclodextrin) was 17590 µg/mL (≈ 35.2 mM), the Solubility ([6]; aqueous formulation containing 10% Cremophor-EL alone) was “about 5 mg/ml” and the Solubility ([6]; aqueous formulation containing a mixture of 10% ethanol and 10% Tween 80) was “about 5 mg/ml”. For the same compound, the “Residual amount of O-(4-dimethylaminoethoxycinnamoyl)fumagillol (%) after 1 month” value ([3]; storage at 25° C., after 1 month) was 72.8%, the “Residual amount of O-(4-dimethylaminoethoxycinnamoyl)fumagillol (%) after 3 month” value ([3]; storage at 25° C., after 3 month) was 54.3% and the “kobs (Hydrolysis Rate Constant)” value ([7]; Acidic (pH 3.2), 0 w/v % hydroxypropyl-β-cyclodextrin) was 0.2042 h⁻¹. The “Inhibition ratio (%)” value [7, 19] was 52.20%, the “kobs (Hydrolysis Rate Constant)” value [7, 19] was 0.0976 h⁻¹ and the “Inhibition ratio (%)” value [7, 20] was 58.47%. The “kobs (Hydrolysis Rate Constant)” value [7, 20] was 0.0848 h⁻¹, the “Inhibition ratio (%)” value [7, 21] was 63.08% and the “kobs (Hydrolysis Rate Constant)” value [7, 21] was 0.0754 h⁻¹. For the same compound, the “Inhibition ratio (%)” value [7, 22] was 67.43%, the “kobs (Hydrolysis Rate Constant)” value [7, 22] was 0.0665 h⁻¹ and the “kobs (Hydrolysis Rate Constant)” value ([7]; Basic (pH 11.5), 0 w/v % hydroxypropyl-β-cyclodextrin) was 0.0918 h⁻¹. The “Inhibition ratio (%)” value [7, 23] was 5.00%, the “kobs (Hydrolysis Rate Constant)” value [7, 23] was 0.0816 h⁻¹ and the “Inhibition ratio (%)” value [7, 24] was 16.55%. For the same compound, the “kobs (Hydrolysis Rate Constant)” value [7, 24] was 0.0580 h⁻¹, the “Inhibition ratio (%)” value [7, 25] was 22.77% and the “kobs (Hydrolysis Rate Constant)” value [7, 25] was 0.0453 h⁻¹. The “Inhibition ratio (%)” value [7, 26] was 30.56%, the “kobs (Hydrolysis Rate Constant)” value [7, 26] was 0.0294 h⁻¹ and the “kobs (Hydrolysis Rate Constant)” value ([7]; Neutral (pH 7.2), 0 w/v % hydroxypropyl-β-cyclodextrin) was 0.0162 h⁻¹. For the same compound, the “Inhibition ratio (%)” value [7, 27] was 12.96%, the “kobs (Hydrolysis Rate Constant)” value [7, 27] was 0.0141 h⁻¹ and the “Inhibition ratio (%)” value [7, 28] was 15.43%. For the same compound, the “kobs (Hydrolysis Rate Constant)” value [7, 28] was 0.0137 h⁻¹, the “Inhibition ratio (%)” value [7, 29] was 24.96% and the “kobs (Hydrolysis Rate Constant)” value [7, 29] was 0.0122 h⁻¹. For the same compound, the “Inhibition ratio (%)” value [7, 30] was 29.01%, the “kobs (Hydrolysis Rate Constant)” value [7, 30] was 0.0115 h⁻¹ and the “Inhibition Ratio (%), Tumor Tissue Volume” value (Lewis lung carcinoma; [31]) was 37.7%. For the same compound, the “Inhibition Ratio (%), Tumor Tissue Weight” value (Lewis lung carcinoma; [31]) was 33.6%, the “Inhibition Ratio (%), Tumor Tissue Volume” value (Lewis lung carcinoma; [32]) was 63.3% and the “Inhibition Ratio (%), Tumor Tissue Weight” value (Lewis lung carcinoma; [32]) was 71.4%. For the same compound, the Solubility [4, 18] was 50 µg/mL (≈ 0.1 mM), the “increase of aqueous solubility” value ([4]; depending the pH and the concentration of hydroxypropyl-β-cyclodextrin or sulfobutylether-7-β-cyclodextrin) was 20-1000 fold and the Solubility ([4]; in water) was 50 µg/mL (≈ 0.1 mM).
In the case of `OC[C@H]1O[C@@H]2O[C@H]3[C@H](O)[C@@H](O)[C@@H](O[C@H]4[C@H](O)[C@@H](O)[C@@H](O[C@H]5[C@H](O)[C@@H](O)[C@@H](O[C@H]6[C@H](O)[C@@H](O)[C@@H](O[C@H]7[C@H](O)[C@@H](O)[C@@H](O[C@H]8[C@H](O)[C@@H](O)[C@@H](O[C@H]1[C@H](O)[C@H]2O)O[C@@H]8CO)O[C@@H]7CO)O[C@@H]6CO)O[C@@H]5CO)O[C@@H]4CO)O[C@@H]3CO` [β-cyclodextrin], the aqueous solubility [8] is listed as 1.8 g per 100 ml of water.
